Measurements from US12201613B2 (priority 2020, dated 2025).

What was measured:
[1] = test system: SARS-CoV-2 (SARS-CoV-2/human/TWN/CGMH-CGU-01/2020); assay type: cell-based
[2] = test system: lysozyme-coated Pd-NTF electrodes; experiment: Binding selectivity of S-protein to lysozyme-coated Pd-NTF electrode (EIS); details: presence of peptide analogue
Excerpt: (iii) lysozyme-coated Pd-electrode in the absence of peptide analogues; or […]

[3] = target: T1, SARS-CoV-2 S-protein-ACE2 binding (Homo sapiens, UniProt Q9BYF1, K631R); experiment: EIS-based biosensing platform (ACE2-Pd-NTFE): modulation of S-protein-ACE2 binding; set-up: species or system SARS-CoV-2; human; details: for suppression of S-protein-ACE2 interaction / maximum binding efficacy / ECmax S-protein (S-protein-ACE2 interaction at maximum S-protein concentration): 4 μg/mL ACEi; for suppression of S-protein-ACE2 interaction / maximum binding efficacy: at maximum S-protein concentration; for ECmax S-protein (S-protein-ACE2 interaction at maximum S-protein concentration): baseline 99.5%±11.0% (104.2%±4.8% for ramiprilat); for modulation effect on the S-protein-ACE2 binding: dose-dependent, 0.1 to 4 μg/mL
T1 construct: made in house

[4] = Binding selectivity of S-protein to plain Pd-NTF electrode (EIS); details: presence of peptide analogue

Row | Structure (SMILES) | E gene RNA in the media increased by [1] [%] | E gene RNA copies in the culture media reduced by [1] | effect on binding patterns of S-protein to the lysozyme-coated Pd-NTF electrode [2] | suppression of S-protein-ACE2 interaction / maximum binding efficacy [3] | ECmax S-protein (S-protein-ACE2 interaction at maximum S-protein concentration) [3] [%] | modulation effect on the S-protein-ACE2 binding [3] | effect on binding patterns of S-protein to the bare Pd-NTF electrode [4] | effect on S-protein-ACE2 binding at highest dose ([3]; 4 μg/mL)
1 | CCOC(=O)[C@H](CCc1ccccc1)N[C@@H](C)C(=O)N1CCC[C@H]1C(=O)O [enalapril] | 93.7 |  |  |  |  |  |  | 
2 | C[C@H](N[C@@H](CCc1ccccc1)C(=O)O)C(=O)N1CCC[C@H]1C(=O)O [enalaprilat] | 44.4 |  |  |  |  |  |  | 
3 | CCC[C@H](N[C@@H](C)C(=O)N1[C@H](C(=O)O)C[C@@H]2CCCC[C@@H]21)C(=O)O [perindoprilat] |  | ~20.1% | did not change the binding patterns | 67% | 33.0±3.7 | antagonism effect is significantly enhanced | did not change the binding patterns | 
4 | CCOC(=O)[C@H](CCc1ccccc1)N[C@@H](C)C(=O)N1[C@H](C(=O)O)C[C@@H]2CCC[C@@H]21 [ramipril] |  | 39.3% |  | approximately 42% | 57.1±11.4 | dose-dependent and non-competitive inhibition |  | 
5 | C[C@H](N[C@@H](CCc1ccccc1)C(=O)O)C(=O)N1[C@H](C(=O)O)C[C@@H]2CCC[C@@H]21 [ramiprilat] |  | 36.4% |  | 72% | 27.6±7.5 | antagonism effect is significantly enhanced |  | Near full inhibition
6 | C[C@H](CS)C(=O)N1CCC[C@H]1C(=O)O [captopril] | 34.5 |  |  |  |  |  |  | 
7 | CCC[C@H](N[C@@H](C)C(=O)N1[C@H](C(=O)O)C[C@@H]2CCCC[C@@H]21)C(=O)OCC [perindopril] |  | approximately 18.8% |  | approximately 48% | 51.9±5.3 | dose-dependent and non-competitive inhibition |  | 
8 | NCCCC[C@H](N[C@@H](CCc1ccccc1)C(=O)O)C(=O)N1CCC[C@H]1C(=O)O [lisinopril] | 54.2 |  | did not change the binding patterns |  |  |  |  | 
